Laboratory results reported in the supplement of paper PMC10331698.
± gives the standard deviation of the averaged measurements.

Key:
Assay in all cases: level (log10 ratio to DMSO vehicle control); higher = higher biomarker level / cell amount than vehicle control
Conditions in all cases: in DMSO
[1] = compound: O=S(=O)(O)CCC(F)(F)C(F)(F)C(F)(F)C(F)(F)C(F)(F)C(F)(F)F [6:2 Fluorotelomer sulfonic acid]
Description: (§1)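 BioMAP Diversity Plus panel of 12 human primary cell co-culture systems (3C, 4H, LPS, SAg, BT, BF4T, BE3C, CASM3C, HDF3CGF, KF3CT, MyoF, Mphg). Compounds were added 1 h before stimulation and left for 24 h (MyoF 48 h; BT 72 h for soluble read-outs or 6 d for IgG). Biomarkers were read by ELISA, cytotoxicity by SRB, PBMC viability and proliferation by Alamar Blue. Each well value was divided by the mean of 8 DMSO control wells on the same plate and log10 transformed; duplicate blinded samples were tested at 4 concentrations.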

[2] = compound: O=C(O)C=CC(F)(C(F)(F)F)C(F)(F)F [3-(Perfluoroisopropyl)-2-propenoic acid]
Description: as §1

[3] = compound: COC(=O)C(F)(F)C(F)(F)OC(F)(C(F)(F)F)C(F)(F)OC(F)=C(F)F [Methyl perfluoro(3-(1-ethenyloxypropan-2-yloxy)propanoate)]
Description: as §1

Hexafluoroamylene glycol = compound: OCC(F)(F)C(F)(F)C(F)(F)CO [Hexafluoroamylene glycol]
Description: as §1

[4] = compound: O=S(=O)(F)C(F)(F)C(F)(F)C(F)(F)C(F)(F)C(F)(F)C(F)(F)C(F)(F)C(F)(F)F [Perfluorooctanesulfonyl fluoride]
Description: as §1

[5] = compound: FC(F)(F)C(F)(F)C(F)(F)C(F)(F)C(F)(F)C(F)(F)CC1CO1 [3-(Perfluorohexyl)-1,2-epoxypropane]
Description: as §1

Nonafluoropentanamide = compound: NC(=O)C(F)(F)C(F)(F)C(F)(F)C(F)(F)F [Nonafluoropentanamide]
Description: as §1

Test System | level (log10) ([1]; 6700 nM) | level (log10) ([1]; 20000 nM) | level (log10) ([1]; 60000 nM) | level (log10) ([2]; 6700 nM) | level (log10) ([2]; 20000 nM) | level (log10) ([2]; 60000 nM) | level (log10) ([3]; 6700 nM) | level (log10) ([3]; 20000 nM) | level (log10) (Hexafluoroamylene glycol; 6700 nM) | level (log10) (Hexafluoroamylene glycol; 20000 nM) | level (log10) (Hexafluoroamylene glycol; 60000 nM) | level (log10) ([4]; 6700 nM) | level (log10) ([4]; 20000 nM) | level (log10) ([4]; 60000 nM) | level (log10) ([5]; 6700 nM) | level (log10) ([5]; 20000 nM) | level (log10) ([5]; 60000 nM) | level (log10) (Nonafluoropentanamide; 6700 nM) | level (log10) (Nonafluoropentanamide; 20000 nM) | level (log10) (Nonafluoropentanamide; 60000 nM)
SAg:CD40 | -0.0275 ± 0.046 | -0.0285 ± 0.064 | -0.053 ± 0.035 | -0.006 ± 0.058 | -0.005 ± 0.04 | -0.038 ± 0.014 | -0.0045 ± 0.021 | -0.0045 ± 0.081 | -0.0285 ± 0.03 | -0.011 ± 0.044 | -0.0215 ± 0.04 | 0.002 ± 0.0071 | -0.003 ± 0.0071 | -0.012 ± 0.0014 | -0.008 ± 0.013 | -0.0135 ± 0.012 | -0.018 ± 0.013 | -0.0145 ± 0.033 | 0.0055 ± 0.013 | 0.002 ± 0.018
SAg:CD62E/E-Selectin | -0.008 ± 0.0057 | -0.007 ± 0.013 | 0.038 ± 0.013 | 0 ± 0.011 | 0.0045 ± 0.013 | -0.006 ± 0.0042 | -0.028 ± 0.0071 | -0.0615 ± 0.032 | -0.0415 ± 0.039 | -0.0015 ± 0.0035 | -0.0135 ± 0.00071 | 0.02 ± 0.05 | -0.0115 ± 0.0035 | -0.0035 ± 0.019 | -0.008 ± 0.018 | 0.0005 ± 0.0035 | -0.012 ± 0.027 | -0.006 ± 0.018 | -0.0075 ± 0.00071 | 0.009 ± 0.0042
SAg:CD69 | -0.0245 ± 0.059 | -0.04 ± 0.024 | -0.04 ± 0.0057 | -0.0105 ± 0.0035 | 0.013 ± 0.0085 | 0.002 ± 0.0071 | -0.0375 ± 0.0092 | -0.0735 ± 0.033 | -0.039 ± 0.042 | -0.0215 ± 0.023 | -0.024 ± 0.048 | -0.0215 ± 0.0064 | -0.0105 ± 0.0064 | -0.0195 ± 0.0035 | 0.013 ± 0.0042 | 0.011 ± 0.011 | 0.0035 ± 0.00071 | -0.0095 ± 0.013 | -0.025 ± 0.0085 | -0.008 ± 0.0042
SAg:CXCL8/IL-8 | -0.012 ± 0.025 | 0.0325 ± 0.039 | 0.064 ± 0.03 | -0.0185 ± 0.005 | -0.0015 ± 0.033 | 0.009 ± 0.028 | -0.0155 ± 0.026 | 0.055 ± 0.15 | -0.0285 ± 0.073 | -0.0175 ± 0.0092 | 0.052 ± 0.035 | 0.039 ± 0.1 | -0.012 ± 0.025 | 0.012 ± 0.058 | -0.0135 ± 0.021 | -0.029 ± 0.013 | 0.0075 ± 0.026 | -0.0285 ± 0.039 | -0.027 ± 0.02 | -0.0305 ± 0.076
SAg:PBMC Cytotoxicity | 0.0105 ± 0.00071 | 0 ± 0.0071 | 0.0305 ± 0.029 | -0.0035 ± 0.0078 | 0.0015 ± 0.0035 | -0.005 ± 0.017 | -0.0115 ± 0.025 | 0.028 ± 0.044 | 0.0135 ± 0.00071 | 0.008 ± 0.014 | 0.005 ± 0.03 | -0.0155 ± 0.029 | 0.0105 ± 0.022 | 0.011 ± 0.027 | 0.01 ± 0.037 | -0.0055 ± 0.011 | 0.025 ± 0.0071 | 0.009 ± 0.02 | -0.0005 ± 0.013 | 0.0295 ± 0.018
SAg:SRB | -0.012 ± 0.0057 | -0.0045 ± 0.0021 | -0.0045 ± 0.021 | -0.001 ± 0.0042 | -0.007 ± 0.025 | -0.0065 ± 0.028 | 0.0035 ± 0.015 | 0.006 ± 0.0057 | -0.0015 ± 0.00071 | -0.004 ± 0.0028 | -0.0005 ± 0.019 | 0.0055 ± 0.0064 | 0.0005 ± 0.0021 | 0.0015 ± 0.0035 | -0.007 ± 0.0099 | -0.012 ± 0.0042 | 0.006 ± 0.016 | -0.0025 ± 0.00071 | -0.0055 ± 0.00071 | -0.0045 ± 0.0078
